From patent US20250152585A1, “PHARMACEUTICAL COMPOUND” (Duke Street Bio Limited, priority 2022, published 2025)
Read-outs that look alike come from different tables or passages of the source.

Experiments:
[1] = molecular target: T1, full length N-terminally FLAG-tagged PARP1 (Homo sapiens, UniProt P09874); test: PARP1 probe displacement HTRF assay; settings: for Selectivity: PARP1 over PARP2, ratio Kd (PARP2)/Kd (PARP1); for Kd: binned Kd
[2] = molecular target: T2, N-terminally FLAG-tagged PARP2 (amino acids 1-583) (Homo sapiens, UniProt Q9UGN5); test: PARP2 probe displacement HTRF assay; assay type: binding; settings: binned Kd
T2 construct: N-terminally FLAG-tagged PARP2 (amino acids 1-583)
Protocol: Data analysis was performed identical as for PARP1.

[3] = molecular target: T1, full length N-terminally FLAG-tagged PARP1; test: PARP1 biochemical DELFIA assay (auto-PARylation); design: recombinant full length human N-terminally FLAG-tagged PARP1
[4] = read-out: PARP1 HTRF, probe displacement HTRF
[5] = binned IC50, biochemical auto-PARylation assay
[6] = read-out: PARP1 HTRF, PARP1 probe displacement HTRF
[7] = binned IC50, PARP1 biochemical DELFIA assay
[8] = PARP1 HTRF, PARP1 probe displacement HTRF
[9] = PARP1 HTRF, probe displacement HTRF

T1 sequence (P09874 whole entry, the tested form may be a part): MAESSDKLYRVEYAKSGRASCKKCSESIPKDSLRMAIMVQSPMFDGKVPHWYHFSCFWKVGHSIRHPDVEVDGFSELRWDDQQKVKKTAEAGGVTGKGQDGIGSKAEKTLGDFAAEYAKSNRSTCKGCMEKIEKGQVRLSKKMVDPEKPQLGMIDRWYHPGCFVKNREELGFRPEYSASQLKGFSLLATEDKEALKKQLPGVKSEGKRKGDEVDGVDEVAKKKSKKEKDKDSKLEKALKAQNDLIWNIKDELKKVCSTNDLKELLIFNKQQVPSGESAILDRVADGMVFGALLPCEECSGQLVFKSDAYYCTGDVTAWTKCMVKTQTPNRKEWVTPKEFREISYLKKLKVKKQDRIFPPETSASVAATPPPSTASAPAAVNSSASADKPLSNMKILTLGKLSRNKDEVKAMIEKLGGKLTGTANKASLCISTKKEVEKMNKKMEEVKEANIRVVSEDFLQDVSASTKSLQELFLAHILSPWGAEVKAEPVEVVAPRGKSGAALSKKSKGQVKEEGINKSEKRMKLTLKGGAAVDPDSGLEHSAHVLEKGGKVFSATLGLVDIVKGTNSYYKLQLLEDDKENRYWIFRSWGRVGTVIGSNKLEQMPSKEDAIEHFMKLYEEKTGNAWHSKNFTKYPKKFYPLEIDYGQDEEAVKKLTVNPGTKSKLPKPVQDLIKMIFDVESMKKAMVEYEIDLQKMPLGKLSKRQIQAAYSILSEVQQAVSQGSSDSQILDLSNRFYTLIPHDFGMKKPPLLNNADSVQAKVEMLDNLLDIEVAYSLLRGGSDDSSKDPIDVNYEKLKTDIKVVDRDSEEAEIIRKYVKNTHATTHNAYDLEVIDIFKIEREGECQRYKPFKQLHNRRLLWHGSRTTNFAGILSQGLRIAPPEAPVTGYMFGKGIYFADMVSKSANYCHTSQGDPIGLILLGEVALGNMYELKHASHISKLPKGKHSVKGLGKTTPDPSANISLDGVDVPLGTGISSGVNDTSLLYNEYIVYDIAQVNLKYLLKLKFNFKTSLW
T2 sequence (Q9UGN5 whole entry, the tested form may be a part): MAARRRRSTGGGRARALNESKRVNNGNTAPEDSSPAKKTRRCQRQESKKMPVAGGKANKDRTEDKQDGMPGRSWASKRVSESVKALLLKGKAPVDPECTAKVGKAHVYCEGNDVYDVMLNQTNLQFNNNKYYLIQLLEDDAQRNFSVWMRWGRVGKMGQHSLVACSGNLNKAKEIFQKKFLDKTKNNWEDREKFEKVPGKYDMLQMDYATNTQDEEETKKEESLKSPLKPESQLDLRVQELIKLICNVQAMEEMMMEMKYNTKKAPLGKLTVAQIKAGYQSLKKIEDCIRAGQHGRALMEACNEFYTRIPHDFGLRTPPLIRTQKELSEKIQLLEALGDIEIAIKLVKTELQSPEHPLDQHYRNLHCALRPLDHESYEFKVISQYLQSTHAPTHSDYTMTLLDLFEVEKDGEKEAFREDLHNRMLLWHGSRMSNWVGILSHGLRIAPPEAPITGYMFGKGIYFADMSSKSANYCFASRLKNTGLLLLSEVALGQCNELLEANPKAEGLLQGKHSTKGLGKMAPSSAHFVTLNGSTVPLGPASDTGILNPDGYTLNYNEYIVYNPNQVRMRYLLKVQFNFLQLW

Compound | Selectivity ([1]; probe displacement HTRF) | Kd [1, 4] | Kd ([2]; probe displacement HTRF) | IC50 [3, 5] | Kd [1, 6] | Kd ([2]; PARP2 probe displacement HTRF) | IC50 [3, 7] | Kd [1, 8] | Kd [1, 9]
CC(=O)Nc1ccc(N2CCC(N3CCC(c4cc5ccccc5c(=O)[nH]4)C3)CC2)cc1 (single isomer, unassigned) [Compound 289b] | + (+ indicates a value of 10 to less than 50) | 10 to 100 nM | 100 to 1000 nM | < 10 nM | – | – | – | – | –
CNC(=O)c1ccc(N2CCC(N3CCCC(c4nc5ccccc5c(=O)[nH]4)C3)CC2)c(C)n1 (single isomer, unassigned) [Compound 131b] | +++ (+++ indicate a value of at least 100) | – | – | – | < 10 nM | > 10000 nM | < 10 nM | – | –
CNC(=O)c1ccc(N2CCC(N3CCCC(c4nc5c(Cl)cccc5c(=O)[nH]4)C3)CC2)cn1 (single isomer, unassigned) [Compound 44b] | + (+ indicates a value of 10 to less than 50) | – | – | – | 10 to 100 nM | 1000 to 10000 nM | 10 to 100 nM | – | –
N#Cc1ccc(N2CCC(N3CCC(c4nc5ccccc5c(=O)[nH]4)C3)CC2)cn1 (single isomer, unassigned) [Compound 69b] | − (− indicates a value of less than 10) | – | – | – | 10 to 100 nM | 100 to 1000 nM | 10 to 100 nM | – | –
CCc1ccc(C2CCN(C3CCN(c4ccc(C(=O)NC)nc4C(F)F)CC3)C2)[nH]c1=O (single isomer, unassigned) [Compound 164a] | +++ (+++ indicate a value of at least 100) | – | – | – | < 10 nM | 1000 to 10000 nM | < 10 nM | – | –
CS(=O)(=O)Nc1ccc(N2CCC(N3CCC(c4nc5ccccc5c(=O)[nH]4)C3)CC2)cc1 (single isomer, unassigned) [Compound 250a] | − (− indicates a value of less than 10) | 100 to 1000 nM | 1000 to 10000 nM | 100 to 1000 nM | – | – | – | – | –
CCc1cnc(-c2cnn(C3CCN(c4ccc(C(=O)NC)nc4)CC3)c2)[nH]c1=O [Compound 20] | ++ (++ indicates a value of 50 to less than 100) | – | – | – | – | > 10000 nM | 10 to 100 nM | 10 to 100 nM | –
O=c1[nH]c(C2CCN(C3CCN(c4nc5ccccc5[nH]4)CC3)C2)cc2ccccc12 (racemic) [Compound 297rac] | − (− indicates a value of less than 10) | 10 to 100 nM | 100 to 1000 nM | 10 to 100 nM | – | – | – | – | –
CNC(=O)c1ccc(N2CCC(N3CCCC(c4nc5ccccc5c(=O)[nH]4)C3)CC2)c(Cl)n1 (single isomer, unassigned) [Compound 94a] | + (+ indicates a value of 10 to less than 50) | – | – | – | 10 to 100 nM | 1000 to 10000 nM | 10 to 100 nM | – | –
CNC(=O)c1ccc(N2CCC(N3CCCC(c4nc5ccncc5c(=O)[nH]4)C3)CC2)cn1 (single isomer, unassigned) [Compound 93a] | + (+ indicates a value of 10 to less than 50) | – | – | – | 100 to 1000 nM | > 10000 nM | 100 to 1000 nM | – | –
CNC(=O)c1ccc(N2CCC(N3CC4(c5nc6ccncc6c(=O)[nH]5)CC3C4)CC2)cn1 [Compound 304] | +++ (+++ indicate a value of at least 100) | – | > 10000 nM | < 10 nM | – | – | – | – | 10 to 100 nM
CNC(=O)c1ccc(OCCN2CCC(c3nc4ccccc4c(=O)[nH]3)C2)cn1 (single isomer, unassigned) [Compound 62b] | − (− indicates a value of less than 10) | – | – | – | 100 to 1000 nM | 1000 to 10000 nM | 100 to 1000 nM | – | –
CNC(=O)c1ccc(N2CCC(N3CCC(c4ccc(CC(F)F)c(=O)[nH]4)C3)CC2)cn1 (racemic) [Compound 391rac] | +++ (+++ indicate a value of at least 100) | < 10 nM | 1000 to 10000 nM | < 10 nM | – | – | – | – | –
CNC(=O)c1ccc(N2CCC(N3CC4(c5nc6ccc(F)cc6c(=O)[nH]5)CC3C4)CC2)cn1 [Compound 238] | +++ (+++ indicate a value of at least 100) | – | 100 to 1000 nM | < 10 nM | – | – | – | – | < 10 nM
CNC(=O)c1ccc(N2CCC(N3CCCC(c4nc5ccccc5c(=O)[nH]4)C3)CC2)c(C(F)(F)F)n1 (racemic) [Compound 138rac] | ++ (++ indicates a value of 50 to less than 100) | – | – | – | 10 to 100 nM | 1000 to 10000 nM | 10 to 100 nM | – | –
CCc1ccc(C2CCN(C3CCN(c4ccc(C#N)cc4Cl)CC3)C2)[nH]c1=O (single isomer, unassigned) [Compound 377a] | +++ (+++ indicate a value of at least 100) | 10 to 100 nM | > 10000 nM | 10 to 100 nM | – | – | – | – | –
CNC(=O)c1ccc(N2CCC(N3CCC(c4nc5[nH]nc(C(F)(F)F)c5c(=O)[nH]4)C3)CC2)c(F)n1 (single isomer, unassigned) [Compound 267a] | + (+ indicates a value of 10 to less than 50) | 10 to 100 nM | 100 to 1000 nM | 10 to 100 nM | – | – | – | – | –
CNC(=O)c1cc(C(F)(F)F)c(N2CCC(N3CCC(c4cc5cccc(F)c5c(=O)[nH]4)C3)CC2)cn1 (single isomer, unassigned) [Compound 308b] | +++ (+++ indicate a value of at least 100) | < 10 nM | 100 to 1000 nM | < 10 nM | – | – | – | – | –
CNC(=O)c1ccc(N2CCC(CN3CCC(c4nc5c(Cl)cccc5c(=O)[nH]4)CC3)CC2)cn1 [Compound 40, 5-(4-((4-(8-chloro-4-oxo-3,4-dihydroquinazolin-2-yl)piperidin-1-yl)methyl)piperidin-1-yl)-N-methylpicolinamide] | ++ (++ indicates a value of 50 to less than 100) | – | – | – | – | 100 to 1000 nM | < 10 nM | < 10 nM | –
CCc1ccc(C2CCN(C3CCN(c4ccc(C(=O)NCC(F)F)nc4F)CC3)C2)[nH]c1=O (single isomer, unassigned) [Compound 398b] | +++ (+++ indicate a value of at least 100) | < 10 nM | 100 to 1000 nM | < 10 nM | – | – | – | – | –
CCc1ccc(C2CCN(C3CCN(c4ccc(OC(F)F)nc4)CC3)C2)[nH]c1=O (single isomer, unassigned) [Compound 382b] | +++ (+++ indicate a value of at least 100) | < 10 nM | 100 to 1000 nM | < 10 nM | – | – | – | – | –
CNC(=O)c1ccc(N2CCC(N3CCCC(c4nc5cc(F)ccc5c(=O)[nH]4)C3)CC2)cn1 (single isomer, unassigned) [Compound 108b] | + (+ indicates a value of 10 to less than 50) | – | – | – | 100 to 1000 nM | > 10000 nM | 100 to 1000 nM | – | –
O=C(NC1CC1)c1ccc(N2CCC(N3CCC(c4cc5cccc(F)c5c(=O)[nH]4)C3)CC2)c(F)n1 (single isomer, unassigned) [Compound 349a] | +++ (+++ indicate a value of at least 100) | < 10 nM | > 10000 nM | < 10 nM | – | – | – | – | –
CNC(=O)c1ccc(N2CCC(N3CCC(c4nc5c(C)scc5c(=O)[nH]4)C3)CC2)cn1 (single isomer, unassigned) [Compound 232a] | − (− indicates a value of less than 10) | 10 to 100 nM | 100 to 1000 nM | 10 to 100 nM | – | – | – | – | –
CCc1nc(C(=O)NC)ccc1N1CCC(N2CCC(c3ccc(CC)c(=O)[nH]3)C2)CC1 (racemic) [Compound 134rac] | +++ (+++ indicate a value of at least 100) | – | – | – | < 10 nM | > 10000 nM | < 10 nM | – | –
CCc1cnc(C2CCN(C(=O)C3CCN(c4ccc(C(=O)NC)nc4)CC3)CC2)[nH]c1=O [Compound 41] | + (+ indicates a value of 10 to less than 50) | – | – | – | – | > 10000 nM | 100 to 1000 nM | 100 to 1000 nM | –
CNC(=O)c1ncc(N2CCC(N3CCC(c4cc5ccc(F)cc5c(=O)[nH]4)C3)CC2)c(C(F)(F)F)n1 (single isomer, unassigned) [Compound 266a] | +++ (+++ indicate a value of at least 100) | < 10 nM | 100 to 1000 nM | < 10 nM | – | – | – | – | –
CNC(=O)c1ccc(N2CCC(N3CCC(c4nc5c(C(F)(F)F)cn(C)c5c(=O)[nH]4)C3)CC2)cn1 (racemic) [Compound 288rac] | +++ (+++ indicate a value of at least 100) | 10 to 100 nM | 1000 to 10000 nM | 10 to 100 nM | – | – | – | – | –
